In ChEMBL document CHEMBL3351387, “Bioisosteric replacement of an acylureido moiety attached to an indolin-2-one scaffold with a malonamido or a 2/4-pyridinoylamido moiety produces a selectively potent Aurora-B inhibitor” (Eur J Med Chem, 2014):
pIC50: −log10 of the molar value.

Assays:
[1] = Antitumor activity against human HuH7 cells xenografted in po dosed SCID mouse assessed as inhibition of tumor growth at 2.5 mg/kg, iv qd measured on day 14; assay type: functional; conditions: Huh-7, 336 h
HepG2 = assay: Cytotoxicity against human HepG2 cells by SRB assay; assay type: cell-based
Cytochrome P450 2C9 = Cytochrome P450 2C9 (Homo sapiens, UniProt P11712); assay: Inhibition of CYP2C9 (unknown origin) using Vivid OOMR substrate; assay type: ADME
Vero = assay: Cytotoxicity against african green monkey Vero cells; assay type: cell-based; conditions: chlorocebus sabaeus
Cytochrome P450 2C19 = Cytochrome P450 2C19 (Homo sapiens, UniProt P33261); assay: Inhibition of CYP2C19 (unknown origin) using 3-Cyano-7-ethoxycoumarin substrate; assay type: ADME
A549 [2] = assay: Antimigratory activity against human A549 cells assessed as inhibition of cell migration after 8 to 16 hrs by scratch wound model assay
A549 [3] = assay: Anti-invasive activity against human A549 cells assessed as inhibition of cell invasion by transwell invasion assay
[4] = Plasma concentration rat at 2 mg/kg, iv after 24 hrs by LC-ESI-MS/MS method; assay type: ADME, organism-based; parameters: dose 2 mg/kg, route intravenous
[5] = Volume of distribution at steady state in rat at 2 mg/kg, iv after 24 hrs by LC-ESI-MS/MS method; assay type: ADME, organism-based; parameters: dose 2 mg/kg, route intravenous; conditions: in vivo, read-out: Vdss
[6] = Clearance in rat at 2 mg/kg, iv after 24 hrs by LC-ESI-MS/MS method; assay type: ADME, organism-based; parameters: dose 2 mg/kg, route intravenous; conditions: in vivo
[7] = Antitumor activity against human HuH7 cells xenografted in iv dosed SCID mouse assessed as inhibition of tumor growth at 5 mg/kg, iv qd for 14 days measured on day 9; conditions: Huh-7, iv
[8] = Plasma concentration rat at 2 mg/kg, iv after 5 mins by LC-ESI-MS/MS method; assay type: ADME, organism-based; parameters: dose 2 mg/kg, route intravenous
Cytochrome P450 3A4 = Cytochrome P450 3A4 (Homo sapiens, UniProt P08684); assay: Inhibition of CYP3A4 (unknown origin) using Vivid OOMR substrate; assay type: ADME
[9] = Antitumor activity against human HuH7 cells xenografted in po dosed SCID mouse assessed as inhibition of tumor growth at 2.5 mg/kg, iv qd for 14 days measured on day 9; assay type: functional; conditions: Huh-7
A549 [10] = assay: Cytotoxicity against human A549 cells by SRB assay; assay type: cell-based
[11] = Half life in rat plasma at 2 mg/kg, iv after 24 hrs by LC-ESI-MS/MS method; assay type: ADME, organism-based; parameters: dose 2 mg/kg, route intravenous
Rattus norvegicus = assay: AUC (0 to 24 hrs) in rat plasma at 2 mg/kg, iv after 24 hrs by LC-ESI-MS/MS method; assay type: ADME, organism-based; parameters: time < 24 hr, dose 2 mg/kg, route intravenous; conditions: in vivo

Chain of Cytochrome P450 3A4 (P08684 whole entry): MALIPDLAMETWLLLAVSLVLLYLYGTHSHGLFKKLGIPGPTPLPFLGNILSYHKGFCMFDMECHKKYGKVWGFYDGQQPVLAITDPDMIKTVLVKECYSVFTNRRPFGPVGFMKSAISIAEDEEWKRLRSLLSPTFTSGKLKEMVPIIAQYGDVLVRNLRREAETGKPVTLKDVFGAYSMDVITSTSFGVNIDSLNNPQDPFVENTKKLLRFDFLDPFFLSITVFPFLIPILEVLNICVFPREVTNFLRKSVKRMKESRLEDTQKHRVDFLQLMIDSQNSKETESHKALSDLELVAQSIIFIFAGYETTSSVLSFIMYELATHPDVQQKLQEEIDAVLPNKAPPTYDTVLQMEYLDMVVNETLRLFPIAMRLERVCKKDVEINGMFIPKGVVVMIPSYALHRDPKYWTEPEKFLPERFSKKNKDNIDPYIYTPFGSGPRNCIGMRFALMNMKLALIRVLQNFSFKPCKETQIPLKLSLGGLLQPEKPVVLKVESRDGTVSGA
Chain of Cytochrome P450 2C9 (P11712 whole entry): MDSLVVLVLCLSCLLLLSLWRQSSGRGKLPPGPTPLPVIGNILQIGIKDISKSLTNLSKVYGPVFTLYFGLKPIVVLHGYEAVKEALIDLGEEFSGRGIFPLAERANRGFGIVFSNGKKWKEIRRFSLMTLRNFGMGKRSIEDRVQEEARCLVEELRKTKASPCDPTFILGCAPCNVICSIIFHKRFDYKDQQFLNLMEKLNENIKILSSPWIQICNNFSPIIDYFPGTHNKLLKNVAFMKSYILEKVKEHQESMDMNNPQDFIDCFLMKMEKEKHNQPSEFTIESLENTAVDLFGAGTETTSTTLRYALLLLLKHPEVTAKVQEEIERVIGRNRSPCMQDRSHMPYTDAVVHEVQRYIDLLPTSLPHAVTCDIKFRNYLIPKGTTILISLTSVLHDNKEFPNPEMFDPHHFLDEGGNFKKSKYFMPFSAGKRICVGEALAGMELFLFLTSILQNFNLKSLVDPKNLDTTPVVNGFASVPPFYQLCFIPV
Chain of Cytochrome P450 2C19 (P33261 whole entry): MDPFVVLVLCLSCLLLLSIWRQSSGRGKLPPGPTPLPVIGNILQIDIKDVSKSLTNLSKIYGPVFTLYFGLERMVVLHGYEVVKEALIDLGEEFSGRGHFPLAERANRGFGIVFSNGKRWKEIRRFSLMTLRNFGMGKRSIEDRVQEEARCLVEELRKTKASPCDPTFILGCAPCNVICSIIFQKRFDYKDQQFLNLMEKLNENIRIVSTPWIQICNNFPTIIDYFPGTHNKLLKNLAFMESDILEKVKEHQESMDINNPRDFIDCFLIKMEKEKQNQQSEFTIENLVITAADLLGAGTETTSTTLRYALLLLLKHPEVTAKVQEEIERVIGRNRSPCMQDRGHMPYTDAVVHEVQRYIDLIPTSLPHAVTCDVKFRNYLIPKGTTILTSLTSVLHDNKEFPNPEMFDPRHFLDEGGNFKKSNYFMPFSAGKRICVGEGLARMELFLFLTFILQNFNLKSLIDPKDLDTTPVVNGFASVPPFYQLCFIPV

pIC50 (Cytochrome P450 2C9): 7.40
pIC50 (Cytochrome P450 2C19): 5.46
pIC50 (A549 [2]): 5.39
pIC50 (A549 [3]): 5.49
concentration at 24 h [4]: 10 ng/mL
Vd [5]: 9.34 L/kg
clearance [6]: 9.41 mL/min/kg
concentration at 5 min [8]: 4790 ng/mL
pIC50 (Cytochrome P450 3A4): < 5.00
half-life [11]: 11.8 h
AUC (Rattus norvegicus): 3660 ng·h/mL
Structure (SMILES): O=C1Nc2cc(NC(=O)c3c[nH]cc(-c4ccccc4F)c3=O)ccc2/C1=C/c1ccc[nH]1
inhibition in vivo at 2.5 mg/kg [1]: 38%
pIC50 (HepG2): 6.22
Activity (Vero): Non-toxic
inhibition in vivo at 5 mg/kg [7]: 61%
inhibition in vivo at 2.5 mg/kg [9]: 56%
pIC50 (A549 [10]): 6.30
